# Literature values, collected in patent publication US20040180006A1, “Methods and compositions for blocking the calcium cascade” (priority 2003, published 2004).
# Read-outs that look alike come from different tables or passages of the source.
# Key:
# [1] = test system: mast cell plasma membrane potential; settings: for effect on second (delayed) decrease of bis-oxonol fluorescence: induced by compound 48/80 or antigenic stimulation
# [2] = test system: guinea pig trachea; settings: 10^-4 to 10^-3 M
# [3] = test system: rat basophilic leukemia cells (RBL 2H3); settings: RBL 2H3 cells stimulated by immunoglobulin E-antigen; read-out: concentration required to inhibit histamine secretion from RBL 2H3 cells, immunoglobulin E-antigen
# [4] = test system: rat peritoneal mast cells
Molecule,effect on second (delayed) decrease of bis-oxonol fluorescence [1],IgE-dependent contraction of guinea pig trachea [2],contraction of guinea pig trachea induced by endogenous histamine [2],IC50 [3] [µM],effect on first (fast) decrease of bis-oxonol fluorescence ([1]; induced by compound 48/80),"IC50 ([4]; peritoneal cells stimulated by imunoglobulin E-antigen, read-out: IC50 of histamine secretion, imunoglobulin E-antigen) [µM]","IC50 ([4]; peritoneal cells stimulated by ionophore A23187, read-out: IC50 of histamine secretion, ionophore A23187) [µM]","IC50 ([4]; peritoneal cells stimulated by phorbol 12-myristate 13-acetate, read-out: IC50 of histamine secretion, phorbol 12-myristate 13-acetate) [µM]","IC50 ([4]; peritoneal cells stimulated by substance P, read-out: IC50 of histamine secretion, substance P) [µM]"
C[C@@H]1O[C@@H](O[C@H]2C[C@@H](O)[C@]3(CO)[C@H]4[C@H](O)C[C@]5(C)[C@@H](C6=CC(=O)OC6)CC[C@]5(O)[C@@H]4CC[C@]3(O)C2)[C@H](O)[C@H](O)[C@H]1O [ouabain],inhibited,–,–,–,–,–,–,–,–
zinc gluconate,did not alter,inhibited,unable to affect,140,inhibited,18,1.6,1.9,5.4
